Measured values reported in patent publication US9801850B2, “Antibacterial agent” (OSAKA UNIVERSITY, priority 2009, dated 2017).
≈ marks a conversion by molar mass, not a printed value.

Tests used:
[1] = tested on: methicillin-resistant Staphylococcus aureus (MRSA) ATCC43300; assay: MIC, broth microdilution (Example 1); type: cell-based; details: MRSA ATCC43300; MH-broth, 37° C., 18 hours
Procedure: Methicillin-susceptible Staphylococcus aureus (MSSA) NCTC8325 and methicillin-resistant Staphylococcus aureus (MRSA) ATCC43300 were used as bacteria. The bacteria of each type were cultured using Mueller-Hinton Broth (MH-broth, Difco) as a medium. Then, the minimum inhibitory concentration (MIC) of each of the EGCG derivatives was measured by a broth microdilution method in accordance with the Clinical and Laboratory Standards Institute (CLSI) guidelines (hereinafter the same).
First, each of the EGCG derivatives was dissolved in 100% dimethyl sulfoxide (DMSO, Wako Pure Chemical Industries, Ltd.) so that the concentration thereof became 5120 μg/ml. The resultant solution was diluted with DMSO or sterile distilled water so as to prepare two-fold dilution series of antibacterial agent solutions. […] Each of these antibacterial agent solutions was dispensed to wells of a 96-well plate. The concentration of the EGCG derivative in the antibacterial agent solution dispensed to the wells was set to be 10 times as high as the final concentration. On the other hand, the bacteria were cultured in the MH-broth at 37° C. overnight, and the thus-obtained pre-culture solution was diluted with a new MH-broth so that the concentration thereof in the MH-broth became 10^−4 (10^4-fold dilution), thus preparing a bacterial culture solution of about 1×10^5 CFU/ml (CFU: Colony Forming Unit, the number of viable cells). The bacterial culture solution was further added to each well, and the mixture was cultured at 37° C. for 18 hours. The ratio (volume ratio) between the antibacterial agent solution and the bacterial culture solution added to each well was set to 1:9 (the antibacterial agent solution:the bacterial culture solution), and the volume of the mixture of them per well was set to 100 μl in total. The final concentration of the EGCG derivative in the mixture was set to 8 μg/ml to 512 μg/ml, and the number of viable cells in the mixture was set to about 1×10^5 CFU/ml. Then, after the completion of the culture, the MIC was determined. Also, the turbidity (OD600 nm) was measured using a plate reader so as to identify minor differences.
As Comparative Example 1, the same procedures as in Example 1 were performed, except that unsubstituted EGCG was used as an antibacterial agent instead of the EGCG derivatives of Example 1. Furthermore, as a control, the same procedures as in Example 1 were performed, except that sterile distilled water, 100% DMSO, or 50% DMSO was used instead of the antibacterial agent solutions containing the EGCG derivatives.

[2] = tested on: MRSA clinical isolate No. 12; assay: MIC, broth microdilution (Example 2, Table 6); type: cell-based, Staphylococcus aureus
[3] = tested on: Cryptococcus neoformans ATCC90112; assay: MIC with respect to fungi, broth microdilution (Table 8); type: cell-based; details: RPMI1640/MOPS (pH 7.0), 35° C., 24 to 48 hours
Procedure: (§1) Regarding the respective type strains shown in Tables 7 and 8 below, the MIC measurement was performed using the antibacterial agent solutions of Example 2 in the same manner as described in Section (2) of Example 1, except for the following. The antibacterial agent solutions were prepared by dissolving the EGCG derivatives of Example 2 in 100% DMSO and then diluting the resultant mixtures with sterile distilled water. The respective strains were derived from ATCC or NCTC. As Moraxella catarrhalis and Aspergillus fumigatus, clinical isolates thereof without an acquired resistance mechanism were used. For nutrient-rich bacteria, namely, Streptococcus pneumoniae ATCC49619, Streptococcus pyogenes ATCC19615, Streptococcus agalactiae ATCC13813, Moraxella catarrhalis, and Haemophilis influenzae ATCC49766, Strepto Haemo supplement (Eiken Chemical Co., Ltd.) was added to media for culturing them. The MIC measurement with respect to fungi was carried out by a broth microdilution method using a RPMI1640/MOPS (pH 7.0) medium in accordance with CLSI guidelines. About 2×10^3 cells/ml of fungi were inoculated to the medium. After the culture at 35° C. for 24 to 48 hours, the MIC was determined. Also, regarding the antibacterial agent solution of Comparative Example 2, the MIC was measured in the same manner.

Candida krusei ATCC6258 = assay: as above; type: cell-based; details: RPMI1640/MOPS (pH 7.0), 35° C., 24 to 48 hours
Procedure: as §1

[4] = tested on: Candida tropicalis ATCC750; assay: as above; type: cell-based; details: RPMI1640/MOPS (pH 7.0), 35° C., 24 to 48 hours
Procedure: as §1

Aspergillus fumigatus = assay: as above; type: cell-based; details: Aspergillus fumigatus clinical isolate; RPMI1640/MOPS (pH 7.0), 35° C., 24 to 48 hours
Procedure: as §1

[5] = tested on: Candida albicans ATCC24433; assay: as above; type: cell-based; details: RPMI1640/MOPS (pH 7.0), 35° C., 24 to 48 hours
Procedure: as §1

[6] = tested on: Candida glabrata ATCC90030; assay: as above; type: cell-based; details: RPMI1640/MOPS (pH 7.0), 35° C., 24 to 48 hours
Procedure: as §1

[7] = tested on: Candida parapsilosis ATCC22019; assay: as above; type: cell-based; details: RPMI1640/MOPS (pH 7.0), 35° C., 24 to 48 hours
Procedure: as §1

[8] = tested on: MSSA clinical isolate No. 5; assay: MIC, broth microdilution (Example 2, Table 6); type: cell-based, Staphylococcus aureus
[9] = tested on: Stenotrophomonas maltophilia ATCC13637; assay: Antibacterial spectrum MIC (Table 7); type: cell-based
Summary of the method: (§2)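 CLSI broth microdilution in Mueller-Hinton broth: compounds were dissolved in DMSO, diluted with sterile water and tested at final 8–512 μg/ml against about 1×10^5 CFU/ml inoculum. After 18 h at 37 °C, the MIC was read and OD600 turbidity was recorded.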

Moraxella catarrhalis = assay: Antibacterial spectrum MIC (Table 7); type: cell-based; details: Moraxella catarrhalis clinical isolate, Strepto Haemo supplement
Summary of the method: as §2

[10] = tested on: Streptococcus pyogenes ATCC19615; assay: Antibacterial spectrum MIC (Table 7); type: cell-based; details: Strepto Haemo supplement
Summary of the method: as §2

[11] = tested on: Staphylococcus aureus NCTC8325; assay: Antibacterial spectrum MIC (Table 7); type: cell-based
Summary of the method: as §2

[12] = tested on: Bacillus cereus ATCC14579; assay: Antibacterial spectrum MIC (Table 7); type: cell-based
Summary of the method: as §2

[13] = tested on: Enterococcus faecalis ATCC29212; assay: Antibacterial spectrum MIC (Table 7); type: cell-based
Summary of the method: as §2

[14] = tested on: Bacillus subtilus ATCC6051; assay: Antibacterial spectrum MIC (Table 7); type: cell-based
Summary of the method: as §2

[15] = tested on: Klebsiella oxytoca ATCC8724; assay: Antibacterial spectrum MIC (Table 7); type: cell-based
Summary of the method: as §2

[16] = tested on: Streptococcus pneumoniae ATCC49619; assay: Antibacterial spectrum MIC (Table 7); type: cell-based; details: Strepto Haemo supplement
Summary of the method: as §2

Neisseria meningitidis = assay: Antibacterial spectrum MIC (Table 7); type: cell-based
Summary of the method: as §2

[17] = tested on: Micrococcus lutus ATCC9341; assay: Antibacterial spectrum MIC (Table 7); type: cell-based
Summary of the method: as §2

[18] = tested on: MSSA clinical isolate No. 2; assay: MIC, broth microdilution (Example 2, Table 6); type: cell-based, Staphylococcus aureus
[19] = tested on: MRSA clinical isolate No. 7; assay: MIC, broth microdilution (Example 2, Table 6); type: cell-based, Staphylococcus aureus

Question: What does the source list for `O=C(O[C@@H]1Cc2c(O)cc(O)cc2O[C@@H]1c1cc(O)c(O)c(O)c1)c1cc(O)c(O)c(O)c1` [EGCG, Epigallocatechin gallate, reference compound]?
Answer: MIC [1]: 256 µg/mL (≈ 558 µM); MIC [2]: >128 µg/mL; MIC [3]: 64 µg/mL (≈ 140 µM); MIC (Candida krusei ATCC6258): 64 µg/mL (≈ 140 µM); MIC [4]: 64 µg/mL (≈ 140 µM); MIC (Aspergillus fumigatus): 64 µg/mL (≈ 140 µM); MIC [5]: 64 µg/mL (≈ 140 µM); MIC [6]: 32 µg/mL (≈ 69.8 µM); MIC [7]: 64 µg/mL (≈ 140 µM); MIC [8]: 128 µg/mL (≈ 279 µM); MIC [9]: 64 µg/mL (≈ 140 µM); MIC (Moraxella catarrhalis): 128 µg/mL (≈ 279 µM); MIC [10]: 128 µg/mL (≈ 279 µM); MIC [11]: 128 µg/mL (≈ 279 µM); MIC [12]: 64 µg/mL (≈ 140 µM); MIC [13]: 256 µg/mL (≈ 558 µM); MIC [14]: 64 µg/mL (≈ 140 µM); MIC [15]: 128 µg/mL (≈ 279 µM); MIC [16]: 32 µg/mL (≈ 69.8 µM); MIC (Neisseria meningitidis): 32 µg/mL (≈ 69.8 µM); MIC [17]: 128 µg/mL (≈ 279 µM); MIC [18]: >128 µg/mL; MIC [19]: >128 µg/mL
